Source: US20070293493A1, “OXAZOLIDINONE ANTIBIOTICS AND DERIVATIVES THEREOF” (priority 2003, published 2007)
In brackets after ≈: the same amount, converted by molar mass. Read-outs that look alike come from different tables or passages of the source.

Tests used:
Assay type in all cases: cell-based
[1] = system: Streptococcus pneumoniae IID553; test: MIC, agar dilution method, Mueller-Hinton agar with 5% defibrinated horse blood; details: 35° C., 5% CO2, 24 hours
Description: (§1) The following in vitro results were obtained based on an agar dilution method except for C. pneumoniae. The activity is presented as the minimum inhibitory concentration (MIC).
(§2) Streptococci and enterococci were tested on Mueller-Hinton agar supplemented with 5% defibrinated horse blood, using an approximate inoculum of 1×10^4 cfu/spot an incubation temperature of 35° C. in an atmosphere of 5% CO2 for 24 hours. The MIC was defined as the lowest concentration at which no visible bacterial growth was observed.

[2] = system: Streptococcus pneumoniae PRQR (penicillin resistant, quinolone resistant); test: as above; details: 35° C., 5% CO2, 24 hours
Description: as §1, §2

[3] = system: Enterococcus faecium VRQR (vancomycin resistant, quinolone resistant); test: as above; details: 35° C., 5% CO2, 24 hours
Description: as §1, §2

[4] = system: Streptococcus pyogenes IID692; test: as above; details: 35° C., 5% CO2, 24 hours
Description: as §1, §2

[5] = system: Moraxella catarrhalis ATCC25238; test: MIC, agar dilution method, Mueller-Hinton agar; details: 35° C., 24 hours
Description: as §1
(§3) S. aureus and M. catarrhalis were tested on Mueller-Hinton agar, using an approximate inoculum of 1×10^4 cfu/spot an incubation temperature of 35° C. for 24 hours. The MIC was defined as the lowest concentration at which no visible bacterial growth was observed.

[6] = system: Staphylococcus aureus Smith; test: MIC, agar dilution method, Mueller-Hinton agar; details: 35° C., 24 hours
Description: as §1, §3

[7] = system: Staphylococcus aureus CR (chloramphenicol resistant); test: MIC, agar dilution method, Mueller-Hinton agar; details: 35° C., 24 hours
Description: as §1, §3

[8] = system: Staphylococcus aureus MR (methicillin resistant); test: MIC, agar dilution method, Mueller-Hinton agar; details: 35° C., 24 hours
Description: as §1, §3

Row | SMILES | MIC ([1]; read-out: MIC) [µg/mL] | MIC ([2]; read-out: MIC) [µg/mL] | MIC ([3]; read-out: MIC) [µg/mL] | MIC ([4]; read-out: MIC) [µg/mL] | MIC ([5]; read-out: MIC) [µg/mL] | MIC ([6]; read-out: MIC) [µg/mL] | MIC ([7]; read-out: MIC) [µg/mL] | MIC ([8]; read-out: MIC) [µg/mL] | MIC [1] [µg/mL] | MIC [2] [µg/mL] | MIC [3] [µg/mL] | MIC [4] [µg/mL] | MIC [5] [µg/mL] | MIC [6] [µg/mL] | MIC [7] [µg/mL] | MIC [8] [µg/mL]
1 | N[C@@H]1[C@H]2CN(c3c(F)cc(N4C[C@H](Cn5ccnn5)OC4=O)cc3F)C[C@@H]12 [example 2, 1-[5(R)-3-[4-[(1α,5α,6α)-6-Amino-3-azabicyclo[3.1.0]hexan-3-yl]-3,5-difluorophenyl]-2-oxooxazolidin-5-ylmethyl]-1,2,3-triazole] | 0.25 (≈ 0.664 µM) | 0.25 (≈ 0.664 µM) | 1 (≈ 2.66 µM) | 0.25 (≈ 0.664 µM) | 1 (≈ 2.66 µM) | 0.125 (≈ 0.332 µM) | 2 (≈ 5.31 µM) | 0.25 (≈ 0.664 µM) |  |  |  |  |  |  |  | 
2 | N#C[C@@H]1[C@H]2C=C(c3ccc(N4C[C@H](Cn5ccnn5)OC4=O)cc3F)C[C@@H]12 [example 8, 1-[5(R)-3-[4-[(1α,5α,6α)-6-Cyanobicyclo[3.1.0]hex-2-en-3-yl]-3-fluorophenyl]-2-oxooxazolidin-5-ylmethyl]-1,2,3-triazole] |  |  |  |  |  |  |  |  | 0.5 (≈ 1.37 µM) | 0.25 (≈ 0.684 µM) | 0.25 (≈ 0.684 µM) | 0.125 (≈ 0.342 µM) | 1 (≈ 2.74 µM) | 0.125 (≈ 0.342 µM) | 1 (≈ 2.74 µM) | 0.06 (≈ 0.164 µM)
